Test results reported in ChEMBL document CHEMBL4316596, “Antimicrobial Peptides with High Proteolytic Resistance for Combating Gram-Negative Bacteria” (J Med Chem, 2019).
In brackets after ≈: the same amount, converted by molar mass.

Tests used:
Klebsiella pneumoniae [1] = assay: Bactericidal activity against Klebsiella pneumoniae incubated for 4 hrs followed by culture spread on agar plates and cultured overnight; type: functional; conditions: read-out: MBC>99.9
Pseudomonas aeruginosa [2] = assay: Antimicrobial activity against Pseudomonas aeruginosa ATCC 27853 after 24 hrs by NCCLS-protocol based assay; type: functional; conditions: ATCC 27853, 24 h
Escherichia coli [3] = assay: Bactericidal activity against Escherichia coli K88 incubated for 4 hrs followed by culture spread on agar plates and cultured overnight; type: functional; conditions: K88, 4 h, read-out: MBC>99.9
Pseudomonas aeruginosa [4] = assay: Bactericidal activity against Pseudomonas aeruginosa CICC 21630 clinical isolates incubated for 4 hrs followed by culture spread on agar plates and cultured overnight; type: functional; conditions: CICC 21630, 4 h, read-out: MBC>99.9
Salmonella typhimurium [5] = assay: Bactericidal activity against Salmonella typhimurium C7731 incubated for 4 hrs followed by culture spread on agar plates and cultured overnight; type: functional, Salmonella enterica subsp. enterica serovar Typhimurium; conditions: Salmonella enterica, C7731, 4 h; read-out: MBC>99.9
Acinetobacter baumannii [6] = assay: Antimicrobial activity against Acinetobacter baumannii after 24 hrs by NCCLS-protocol based assay; type: functional
[7] = Antimicrobial activity against Salmonella pullorum C7913 after 24 hrs by NCCLS-protocol based assay; type: functional, Salmonella enterica subsp. enterica serovar Pullorum; conditions: Salmonella enterica, C7913, 24 h
Pseudomonas aeruginosa [8] = assay: Bactericidal activity against Pseudomonas aeruginosa 26305 clinical isolates incubated for 4 hrs followed by culture spread on agar plates and cultured overnight; type: functional; conditions: Pseudomonas aeruginosa, 26305, 4 h; read-out: MBC>99.9
Escherichia coli [9] = assay: Antimicrobial activity against Escherichia coli UB1005 after 24 hrs by NCCLS-protocol based assay; type: functional; conditions: UB1005, 24 h
Pseudomonas aeruginosa [10] = assay: Antimicrobial activity against Pseudomonas aeruginosa PAO1 after 24 hrs by NCCLS-protocol based assay; type: functional; conditions: PAO1, 24 h
Pseudomonas aeruginosa [11] = assay: Antimicrobial activity against Pseudomonas aeruginosa 25349 clinical isolates after 24 hrs by NCCLS-protocol based assay; type: functional; conditions: Pseudomonas aeruginosa, 25349, 24 h
Escherichia coli [12] = assay: Antimicrobial activity against Escherichia coli K88 after 24 hrs by NCCLS-protocol based assay; type: functional; conditions: K88, 24 h
Acinetobacter baumannii [13] = assay: Bactericidal activity against Acinetobacter baumannii incubated for 4 hrs followed by culture spread on agar plates and cultured overnight; type: functional; conditions: read-out: MBC>99.9
Klebsiella pneumoniae [14] = assay: Antimicrobial activity against Klebsiella pneumoniae after 24 hrs by NCCLS-protocol based assay; type: functional
Pseudomonas aeruginosa [15] = assay: Bactericidal activity against Pseudomonas aeruginosa ATCC 27853 incubated for 4 hrs followed by culture spread on agar plates and cultured overnight; type: functional; conditions: ATCC 27853, 4 h, read-out: MBC>99.9
Escherichia coli [16] = assay: Antimicrobial activity against Escherichia coli 078 after 24 hrs by NCCLS-protocol based assay; type: functional; conditions: Escherichia coli, 078, 24 h
Pseudomonas aeruginosa [17] = assay: Bactericidal activity against Pseudomonas aeruginosa CICC 21625 clinical isolates incubated for 4 hrs followed by culture spread on agar plates and cultured overnight; type: functional; conditions: CICC 21625, 4 h, read-out: MBC>99.9
Escherichia coli [18] = assay: Bactericidal activity against Escherichia coli 078 incubated for 4 hrs followed by culture spread on agar plates and cultured overnight; type: functional; conditions: Escherichia coli, 078, 4 h; read-out: MBC>99.9
Pseudomonas aeruginosa [19] = assay: Antimicrobial activity against Pseudomonas aeruginosa 26305 clinical isolates after 24 hrs by NCCLS-protocol based assay; type: functional; conditions: Pseudomonas aeruginosa, 26305, 24 h
Escherichia coli [20] = assay: Antimicrobial activity against Escherichia coli ATCC 25922 after 24 hrs by NCCLS-protocol based assay; type: functional; conditions: ATCC 25922, 24 h
Salmonella typhimurium [21] = assay: Antimicrobial activity against Salmonella typhimurium C7731 after 24 hrs by NCCLS-protocol based assay; type: functional, Salmonella enterica subsp. enterica serovar Typhimurium; conditions: Salmonella enterica, C7731, 24 h
Escherichia coli [22] = assay: Bactericidal activity against Escherichia coli UB1005 incubated for 4 hrs followed by culture spread on agar plates and cultured overnight; type: functional; conditions: UB1005, 4 h, read-out: MBC>99.9
Salmonella typhimurium [23] = assay: Bactericidal activity against Salmonella typhimurium ATCC 14028 incubated for 4 hrs followed by culture spread on agar plates and cultured overnight; type: functional, Salmonella enterica subsp. enterica serovar Typhimurium; conditions: Salmonella enterica, ATCC 14028, 4 h; read-out: MBC>99.9
Pseudomonas aeruginosa [24] = assay: Bactericidal activity against Pseudomonas aeruginosa 25349 clinical isolates incubated for 4 hrs followed by culture spread on agar plates and cultured overnight; type: functional; conditions: Pseudomonas aeruginosa, 25349, 4 h; read-out: MBC>99.9
[25] = Bactericidal activity against Salmonella pullorum C7913 incubated for 4 hrs followed by culture spread on agar plates and cultured overnight; type: functional, Salmonella enterica subsp. enterica serovar Pullorum; conditions: Salmonella enterica, C7913, 4 h; read-out: MBC>99.9
Escherichia coli [26] = assay: Antimicrobial activity against Escherichia coli K99 after 24 hrs by NCCLS-protocol based assay; type: functional; conditions: K99, 24 h
Pseudomonas aeruginosa [27] = assay: Antimicrobial activity against Pseudomonas aeruginosa CICC 21630 clinical isolates after 24 hrs by NCCLS-protocol based assay; type: functional; conditions: CICC 21630, 24 h
Salmonella typhimurium [28] = assay: Antimicrobial activity against Salmonella typhimurium ATCC 14028 after 24 hrs by NCCLS-protocol based assay; type: functional, Salmonella enterica subsp. enterica serovar Typhimurium; conditions: Salmonella enterica, ATCC 14028, 24 h
Escherichia coli [29] = assay: Bactericidal activity against Escherichia coli ATCC 25922 incubated for 4 hrs followed by culture spread on agar plates and cultured overnight; type: functional; conditions: ATCC 25922, 4 h, read-out: MBC>99.9
Escherichia coli [30] = assay: Bactericidal activity against Escherichia coli K99 incubated for 4 hrs followed by culture spread on agar plates and cultured overnight; type: functional; conditions: K99, 4 h, read-out: MBC>99.9
Pseudomonas aeruginosa [31] = assay: Bactericidal activity against Pseudomonas aeruginosa PAO1 incubated for 4 hrs followed by culture spread on agar plates and cultured overnight; type: functional; conditions: PAO1, 4 h, read-out: MBC>99.9
Pseudomonas aeruginosa [32] = assay: Antimicrobial activity against Pseudomonas aeruginosa CICC 21625 clinical isolates after 24 hrs by NCCLS-protocol based assay; type: functional; conditions: CICC 21625, 24 h

MIC95 (Pseudomonas aeruginosa [2]) | MIC95 (Acinetobacter baumannii [6]) | MIC95 [7] | MIC95 (Escherichia coli [9]) | MIC95 (Pseudomonas aeruginosa [10]) | MIC95 (Pseudomonas aeruginosa [11]) | MIC95 (Escherichia coli [12]) | MIC95 (Klebsiella pneumoniae [14]) | MIC95 (Escherichia coli [16]) | MIC95 (Pseudomonas aeruginosa [19]) | MIC95 (Escherichia coli [20]) | Molecule | MBC (Klebsiella pneumoniae [1]) | MBC (Escherichia coli [3]) | MBC (Pseudomonas aeruginosa [4]) | MBC (Salmonella typhimurium [5]) | MBC (Pseudomonas aeruginosa [8]) | MBC (Acinetobacter baumannii [13]) | MBC (Pseudomonas aeruginosa [15]) | MBC (Pseudomonas aeruginosa [17]) | MBC (Escherichia coli [18]) | other results
> 64 µM | 4 µM | 8 µM | 32 µM | > 64 µM | > 64 µM | 8 µM | > 64 µM | 64 µM | > 64 µM | 64 µM | H-VRPVVRPVVRPVVRPVVRPVVRPV-NH2 | > 64 µM | 8 µM | > 64 µM | 32 µM | > 64 µM | 4 µM | > 64 µM | > 64 µM | > 64 µM | MIC95 (Salmonella typhimurium [21]): 32 µM; MBC (Escherichia coli [22]): 32 µM; MBC (Salmonella typhimurium [23]): 32 µM; MBC (Pseudomonas aeruginosa [24]): > 64 µM; MBC [25]: 16 µM; MIC95 (Escherichia coli [26]): 16 µM; MIC95 (Pseudomonas aeruginosa [27]): > 64 µM; MIC95 (Salmonella typhimurium [28]): 16 µM; MBC (Escherichia coli [29]): > 64 µM; MBC (Escherichia coli [30]): 16 µM; MBC (Pseudomonas aeruginosa [31]): > 64 µM; MIC95 (Pseudomonas aeruginosa [32]): > 64 µM
32 µM | 2 µM | 2 µM | 4 µM | 32 µM | 32 µM | 2 µM | 8 µM | 4 µM | 32 µM | 4 µM | H-LRPLLRPLLRPLLRPLLRPL-NH2 | 8 µM | 4 µM | 16 µM | 8 µM | 32 µM | 4 µM | 16 µM | 32 µM | 4 µM | MIC95 (Salmonella typhimurium [21]): 4 µM; MBC (Escherichia coli [22]): 8 µM; MBC (Salmonella typhimurium [23]): 16 µM; MBC (Pseudomonas aeruginosa [24]): 32 µM; MBC [25]: 4 µM; MIC95 (Escherichia coli [26]): 4 µM; MIC95 (Pseudomonas aeruginosa [27]): 16 µM; MIC95 (Salmonella typhimurium [28]): 4 µM; MBC (Escherichia coli [29]): 4 µM; MBC (Escherichia coli [30]): 8 µM; MBC (Pseudomonas aeruginosa [31]): 32 µM; MIC95 (Pseudomonas aeruginosa [32]): 32 µM
32 µM | 4 µM | 8 µM | 4 µM | 64 µM | > 64 µM | 1 µM | 8 µM | 8 µM | > 64 µM | 8 µM | H-IRPIIRPIIRPIIRPIIRPI-NH2 | 16 µM | 1 µM | > 64 µM | 16 µM | > 64 µM | 4 µM | 64 µM | > 64 µM | 16 µM | MIC95 (Salmonella typhimurium [21]): 16 µM; MBC (Escherichia coli [22]): 8 µM; MBC (Salmonella typhimurium [23]): 8 µM; MBC (Pseudomonas aeruginosa [24]): > 64 µM; MBC [25]: 8 µM; MIC95 (Escherichia coli [26]): 4 µM; MIC95 (Pseudomonas aeruginosa [27]): > 64 µM; MIC95 (Salmonella typhimurium [28]): 8 µM; MBC (Escherichia coli [29]): 8 µM; MBC (Escherichia coli [30]): 4 µM; MBC (Pseudomonas aeruginosa [31]): 64 µM; MIC95 (Pseudomonas aeruginosa [32]): > 64 µM

Molecule | MIC95 (Pseudomonas aeruginosa [2]) | MIC95 (Acinetobacter baumannii [6]) | MIC95 [7] | MIC95 (Escherichia coli [9]) | MIC95 (Pseudomonas aeruginosa [10]) | MIC95 (Pseudomonas aeruginosa [11]) | MIC95 (Escherichia coli [12]) | MIC95 (Klebsiella pneumoniae [14]) | MIC95 (Escherichia coli [16]) | MIC95 (Pseudomonas aeruginosa [19]) | MIC95 (Escherichia coli [20]) | MBC (Klebsiella pneumoniae [1]) | MBC (Escherichia coli [3]) | MBC (Pseudomonas aeruginosa [4]) | MBC (Salmonella typhimurium [5]) | MBC (Pseudomonas aeruginosa [8]) | MBC (Acinetobacter baumannii [13]) | MBC (Pseudomonas aeruginosa [15]) | MBC (Pseudomonas aeruginosa [17]) | MBC (Escherichia coli [18]) | other results
CN[C@H](CC(C)C)C(=O)N[C@H]1C(=O)N[C@@H](CC(N)=O)C(=O)N[C@H]2C(=O)N[C@H]3C(=O)N[C@H](C(=O)N[C@H](C(=O)O)c4cc(O)cc(O)c4-c4cc3ccc4O)[C@H](O)c3ccc(c(Cl)c3)Oc3cc2cc(c3O[C@@H]2O[C@H](CO)[C@@H](O)[C@H](O)[C@H]2O[C@H]2C[C@](C)(N)[C@H](O)[C@H](C)O2)Oc2ccc(cc2Cl)[C@H]1O [VANCOMYCIN] | > 64 µM | 2 µM (≈ 2.9 µg/mL) | 8 µM (≈ 11.6 µg/mL) | 16 µM (≈ 23.2 µg/mL) | 8 µM (≈ 11.6 µg/mL) | 64 µM (≈ 92.8 µg/mL) | 2 µM (≈ 2.9 µg/mL) | 16 µM (≈ 23.2 µg/mL) | 4 µM (≈ 5.8 µg/mL) | 64 µM (≈ 92.8 µg/mL) | 8 µM (≈ 11.6 µg/mL) | 32 µM (≈ 46.4 µg/mL) | 4 µM (≈ 5.8 µg/mL) | 64 µM (≈ 92.8 µg/mL) | 16 µM (≈ 23.2 µg/mL) | > 64 µM | 2 µM (≈ 2.9 µg/mL) | > 64 µM | > 64 µM | 4 µM (≈ 5.8 µg/mL) | MIC95 (Salmonella typhimurium [21]): 8 µM (≈ 11.6 µg/mL); MBC (Escherichia coli [22]): 16 µM (≈ 23.2 µg/mL); MBC (Salmonella typhimurium [23]): 8 µM (≈ 11.6 µg/mL); MBC (Pseudomonas aeruginosa [24]): > 64 µM; MBC [25]: 8 µM (≈ 11.6 µg/mL); MIC95 (Escherichia coli [26]): 4 µM (≈ 5.8 µg/mL); MIC95 (Pseudomonas aeruginosa [27]): 32 µM (≈ 46.4 µg/mL); MIC95 (Salmonella typhimurium [28]): 8 µM (≈ 11.6 µg/mL); MBC (Escherichia coli [29]): 16 µM (≈ 23.2 µg/mL); MBC (Escherichia coli [30]): 4 µM (≈ 5.8 µg/mL); MBC (Pseudomonas aeruginosa [31]): 16 µM (≈ 23.2 µg/mL); MIC95 (Pseudomonas aeruginosa [32]): 64 µM (≈ 92.8 µg/mL)
